In publication PMC10460054, “Multiplex Quantitative Analysis of 9 Compounds of Scutellaria baicalensis Georgi in the Plasma of Respiratory Syncytial Virus-Infected Mice Based on HPLC-MS/MS and Pharmacodynamic Effect Correlation Analysis” (Molecules, 2023):
In brackets after ≈: the same amount, converted by molar mass.

Legend:
[1] = system: respiratory syncytial virus (RSV); assay: Lung tissue viral load (RSV-F real-time PCR) and inhibition rate in RSV-infected mice; assay type: in vivo; details: positive control groups
Description: (§1) Male BALB/c mice, aged 2 weeks and weighing 10–12 g, were chosen for this study. They were acclimatized for 2 days and then randomly assigned to one of five groups: blank (C), model (M), positive control ribavirin (Y1), positive control lianhua qingwen granules (Y2), and Scutellaria baicalensis Georgi administration (H1-H12). Each group consisted of six mice, and their weights were recorded. The mice were pre-administered for 2 days, and on the third day, RSV virus (TCID50 = 10^−6) was inoculated through intranasal infection at a volume of 35 μL per mouse. The blank group was inoculated with normal saline of the same volume. […] Lung tissues were weighed, the lung index was calculated, and the lung tissues were stored in the refrigerator at −80 °C for freezing.
The F protein is a RSV-specific protein, so it can be used as a PCR gene indicator to indicate the viral load of lung tissue. […] After quantification, the RNA was reverse transcribed into cDNA, and the SYBR Green Master Mix reagent was used as the reaction system. […] The viral load inhibition rate was calculated using the 2^−ΔΔCt formula, and a graph depicting the change in lung tissue viral load over time was plotted, with time as the abscissa and lung tissue viral load as the ordinate. […]

[2] = system: respiratory syncytial virus (RSV); assay: Lung index and lung index repair rate in RSV-infected mice; assay type: in vivo; details: positive control groups
Description: as §1, with “volume. After the inoculation of the RSV virus, the blank and model groups were given distilled water by gavage, while the drug-administered groups were given an aqueous extract of Scutellaria baicalensis Georgi (10 µL/g) once a day for 3 days. The mice were observed daily for their mental status, hair color, diet, and body weight.” for “volume.”
Based on the recorded body weight and lung tissue weight of mice in the blank, model, positive control, and administration groups, the lung index and lung index repair rate were calculated for each group. […]

[3] = HPLC-MS/MS quantification of 9 compounds in plasma of RSV-infected mice after Scutellaria baicalensis Georgi administration; assay type: in vivo, BALB/c mice; parameters: drug-containing plasma content: unit not given here
Description: The study employed a Vanquish high-performance liquid chromatograph for chromatographic separation, with a HALO C18 column (2.1 × 100 mm, 2.7 μm) as the chromatographic column.
Mass spectrometry was performed using a quadrupole-electrostatic field orbitrap desktop mass spectrometer equipped with an electrospray ion source (ESI). The ESI parameters were set as follows: the pyrolysis voltage was 3.0 kV, the auxiliary gas flow rate was 10 mL/min, the ion transport tube temperature was 350 °C, the auxiliary gas temperature was 350 °C, and the sheath gas flow rate was 45 L/min. Quantitative analysis was performed using the selective ion detection (SIM) mode (Table S1).
Male BALB/c mice, aged 2 weeks and weighing 10–12 g, were chosen for this study. They were acclimatized for 2 days and then randomly assigned to one of five groups: blank (C), model (M), positive control ribavirin (Y1), positive control lianhua qingwen granules (Y2), and Scutellaria baicalensis Georgi administration (H1-H12). Each group consisted of six mice, and their weights were recorded. The mice were pre-administered for 2 days, and on the third day, RSV virus (TCID50 = 10^−6) was inoculated through intranasal infection at a volume of 35 μL per mouse. The blank group was inoculated with normal saline of the same volume. After the inoculation of the RSV virus, the blank and model groups were given distilled water by gavage, while the drug-administered groups were given an aqueous extract of Scutellaria baicalensis Georgi (10 µL/g) once a day for 3 days. The mice were observed daily for their mental status, hair color, diet, and body weight. […] It was then centrifuged at 3000 r/min for 10 min, and the upper layer of plasma was stored at −80℃. Lung tissues were weighed, the lung index was calculated, and the lung tissues were stored in the refrigerator at −80 °C for freezing.
The plasma sample (200 μL) was processed in a 5 mL tube. Subsequently, 10 μL of 5% formic acid and 20 μL of 2 mol/L hydrochloric acid were added, followed by vortexing for 1 min with 10 μL of internal standard solution (100 ng/mL tinidazole). The extraction was completed by adding 2000 μL of acetonitrile solvent and vortexing for 2 min. The mixture was then centrifuged at 12,000 r/min at 4 °C for 10 min, and the supernatant solution was collected in a new centrifuge tube. The supernatant solution was dried by nitrogen at room temperature before being redissolved in 50 μL of 70% acetonitrile solution containing 0.1% formic acid. After vortexing for 1 min, the solution was centrifuged at 12,000 r/min at 4 °C for 10 min, and the resulting supernatant was injected for analysis. The injection volume was 3 μL.
The drug-containing plasma at different time points was subjected to sample treatment. The HPLC-MS/MS analysis method was used to quantitatively detect the 9 compounds in the ion detection (SIM) mode. According to the relative peak area value = index peak area/internal standard peak area, the corresponding concentration value was calculated by substituting the standard curve of each component.

[4] = system: RSV; details: cited from earlier work
[5] = Stability of 9 compounds in mouse plasma under storage conditions; assay type: in vitro ADME; details: n = 6; for Stability 3-Freeze-Thaw Cycles RE: 3 times repeated freeze-thaw at −80 °C; for Stability Short-Term RE: 12 h at 4 °C; for Stability Long-Term RE: −20 °C for 20 days
[6] = RSV-infected mice after Scutellaria baicalensis Georgi administration, double peak phenomenon
[7] = RSV-infected mice, 0.083 h after last gavage of Scutellaria baicalensis Georgi extract, mean ± SD, n = 6
[8] = RSV-infected mice, 0.167 h after last gavage of Scutellaria baicalensis Georgi extract, mean ± SD, n = 6
[9] = RSV-infected mice, 0.25 h after last gavage of Scutellaria baicalensis Georgi extract, mean ± SD, n = 6
[10] = RSV-infected mice, 0.5 h after last gavage of Scutellaria baicalensis Georgi extract, mean ± SD, n = 6
[11] = RSV-infected mice, 1 h after last gavage of Scutellaria baicalensis Georgi extract, mean ± SD, n = 6
[12] = RSV-infected mice, 2 h after last gavage of Scutellaria baicalensis Georgi extract, mean ± SD, n = 6
[13] = RSV-infected mice, 4 h after last gavage of Scutellaria baicalensis Georgi extract, mean ± SD, n = 6
[14] = RSV-infected mice, 6 h after last gavage of Scutellaria baicalensis Georgi extract, mean ± SD, n = 6
[15] = RSV-infected mice, 8 h after last gavage of Scutellaria baicalensis Georgi extract, mean ± SD, n = 6
[16] = RSV-infected mice, 10 h after last gavage of Scutellaria baicalensis Georgi extract, mean ± SD, n = 6
[17] = RSV-infected mice, 12 h after last gavage of Scutellaria baicalensis Georgi extract, mean ± SD, n = 6
[18] = RSV-infected mice, 24 h after last gavage of Scutellaria baicalensis Georgi extract, mean ± SD, n = 6
[19] = high QC (20,000 or 10,000 ng/mL)

Row | Compound | time of highest plasma concentration, first peak [3, 6] | time of highest plasma concentration, second peak [3, 6] | drug-containing plasma content [3, 7] | drug-containing plasma content [3, 8] | drug-containing plasma content [3, 9] | drug-containing plasma content [3, 10] | drug-containing plasma content [3, 11] | drug-containing plasma content [3, 12] | drug-containing plasma content [3, 13] | drug-containing plasma content [3, 14] | drug-containing plasma content [3, 15] | Stability 3-Freeze-Thaw Cycles RE [5, 19] | Stability 3-Freeze-Thaw Cycles RE ([5]; low QC (12.5 or 25.6 ng/mL)) | Stability 3-Freeze-Thaw Cycles RE ([5]; medium QC (320 or 160 ng/mL)) | Stability Short-Term RE [5, 19] | Stability Short-Term RE ([5]; low QC (12.5 or 25.6 ng/mL)) | Stability Short-Term RE ([5]; medium QC (320 or 160 ng/mL)) | Stability Long-Term RE [5, 19] | Stability Long-Term RE ([5]; low QC (12.5 or 25.6 ng/mL)) | Stability Long-Term RE ([5]; medium QC (320 or 160 ng/mL)) | also measured
1 | NC(=O)c1ncn([C@@H]2O[C@H](CO)[C@@H](O)[C@H]2O)n1 [Y1, ribavirin] |  |  |  |  |  |  |  |  |  |  |  |  |  |  |  |  |  |  |  |  | Inhibitory Rates (viral load) [1]: 61.26%; Viral Load ([1]; mean ± SD, n = 6): 2.27 ± 0.37 ×10^5 Copies/Ml; Repair Rate (lung index) [2]: 58.33%; Lung Index ([2]; mean ± SD, n = 6): 0.85 ± 0.08 %
2 | COc1c(O)cc(O)c2c(=O)cc(-c3ccccc3)oc12 [Wogonin] | 0.167 h | 6 h | 344.59± 1.64 | 981.37± 13.72 | 471.39± 1.78 | 222.21± 6.76 | 181.04± 4.74 | 10.35± 1.79 | 71.39± 17.8 | 2664.55± 129.18 | 97.31± 2.71 | 12.89% | −11.16% | 9.82% | 8.46% | −9.77% | 11.75% | 8.46% | −13.33% | 11.75% | drug-containing plasma content [3, 16]: 14.65± 8.42; drug-containing plasma content [3, 17]: 3.41± 5.28; drug-containing plasma content [3, 18]: 0; IC50 against RSV [4]: 7.4 mg/L (≈ 26 µM)
3 | COc1c(OC2OC(C(=O)O)C(O)C(O)C2O)cc2oc(-c3ccccc3)cc(=O)c2c1O [Oroxylin A 7-O-beta-D-glucuronide] | 0.167 h | 6 h | 462.93± 10.74 | 603.78± 13.98 | 143.83± 6.73 | 315.26± 12.78 | 138.74± 3.62 | 315.26± 12.78 | 412.32± 18.42 | 1008.71± 54.19 | 286.84± 8.27 | −0.56% | 6.23% | 3.08% | −0.23% | 7.34% | 1.89% | 0.55% | 7.73% | 2.21% | drug-containing plasma content [3, 16]: 160.51± 5.17; drug-containing plasma content [3, 17]: 29.40± 0.71; drug-containing plasma content [3, 18]: 0
4 | O=C(O)[C@H]1O[C@@H](Oc2cc(O)c3c(=O)cc(-c4ccc(O)cc4)oc3c2)[C@H](O)[C@@H](O)[C@@H]1O [Apigenin-7-glucuronide] |  |  |  |  |  |  |  |  |  |  |  | 8.37% | −2.43% | −0.72% | 8.60% | −3.20% | −2.08% | 9.80% | −3.16% | −1.48% | time of highest plasma concentration, first peak ([3]; male, BALB/c, mouse, in vivo): 0.167 h; time of highest plasma concentration, second peak ([3]; male, BALB/c, mouse, in vivo): 6 h; drug-containing plasma content ([3]; male, BALB/c, mouse, in vivo, 0.083 h): 4725.60± 214.70; drug-containing plasma content ([3]; male, BALB/c, mouse, in vivo, 0.167 h): 6986.86± 153.57; drug-containing plasma content ([3]; male, BALB/c, mouse, in vivo, 0.25 h): 4610.60± 192.08; drug-containing plasma content ([3]; male, BALB/c, mouse, in vivo, 0.5 h): 4344.98± 173.73; drug-containing plasma content ([3]; male, BALB/c, mouse, in vivo, 1 h): 1590.11± 125.69; drug-containing plasma content ([3]; male, BALB/c, mouse, in vivo, 2 h): 2934.42± 221.23; drug-containing plasma content ([3]; male, BALB/c, mouse, in vivo, 4 h): 1037.07± 106.48; drug-containing plasma content ([3]; male, BALB/c, mouse, in vivo, 6 h): 9344.98± 327.73; drug-containing plasma content ([3]; male, BALB/c, mouse, in vivo, 8 h): 2958.20± 207.61; drug-containing plasma content ([3]; male, BALB/c, mouse, in vivo, 10 h): 896.04± 55.63; drug-containing plasma content ([3]; male, BALB/c, mouse, in vivo, 12 h): 47.32± 11.82; drug-containing plasma content ([3]; male, BALB/c, mouse, in vivo, 24 h): 23.55± 2.60
